As a reminder, the IC50 is the point on the concentration scale where inhibition reaches its midpoint.

From patent US11591355B2 (Peloton Therapeutics, Inc., priority 2017, dated 2023) come the findings set out here.

For assay [1], the target named is T1, Human CD73 (Homo sapiens, UniProt P21589).
T1 construct: purchased R&D Systems; host or cells: CHO cells
T1 sequence (P21589 27-549): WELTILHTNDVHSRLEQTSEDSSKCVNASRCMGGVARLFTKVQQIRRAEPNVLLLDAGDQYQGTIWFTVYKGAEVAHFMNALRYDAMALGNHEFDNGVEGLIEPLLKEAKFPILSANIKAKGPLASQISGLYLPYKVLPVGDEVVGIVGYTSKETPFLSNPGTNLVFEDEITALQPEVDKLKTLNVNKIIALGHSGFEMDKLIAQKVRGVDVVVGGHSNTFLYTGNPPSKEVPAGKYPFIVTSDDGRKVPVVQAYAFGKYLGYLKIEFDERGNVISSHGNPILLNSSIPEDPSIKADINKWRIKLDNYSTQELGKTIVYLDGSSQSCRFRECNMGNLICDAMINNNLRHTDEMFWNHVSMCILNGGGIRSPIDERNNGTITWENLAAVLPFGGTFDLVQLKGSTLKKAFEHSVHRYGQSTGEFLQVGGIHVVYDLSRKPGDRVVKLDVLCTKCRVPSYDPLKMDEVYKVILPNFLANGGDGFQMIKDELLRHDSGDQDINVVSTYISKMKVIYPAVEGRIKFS
Briefly: CD73 Enzyme Assay. The assay is classed as biochemical. The following applies: 0.25 nM hCD73, 25 μM AMP, kinetic read at 360 nm; read-out: CD73 Enzyme Assay IC50.

Assay [2] deals with T2, CD73 on U138 human neuroglioma cells (Homo sapiens, UniProt P21589).
T2 construct: U138 cells were obtained from ATCC and cultured in DMEM with 10% FBS; host or cells: U138 human neuroglioma cells
T2 sequence (P21589 27-549): T1 sequence (P21589 27-549)
Briefly: CD73 Cell-Based Assay. As to conditions: U138 cells, AMP substrate, 2 hours at 37° C., inorganic phosphate by malachite green. The method, then:
U138 human neuroglioma cells were used in these experiments. U138 cells were obtained from ATCC and cultured in DMEM with 10% FBS. 2500 cells were seeded into 96-well plate with 100 μL of media the day before the experiment. Cells were washed twice with 200 μL of assay buffer (20 mM HEPES, pH 7.4; 137 mM NaCl; 5.4 mM KCl; 1.3 mM CaCl2); 4.2 mM NaHCO3; 1 mg/mL glucose) to remove residual inorganic phosphate. After washing, 100 μL of buffer was added to each well, then 100 μL of a mixture of AMP substrate (200 μM) and diluted compound was added to each well. The cells were incubated at 37° C. (with 5% CO2) for 2 hours. 50 μL of supernatant was transferred to a 96-well assay plate and the concentration of inorganic phosphate was determined using malachite green reagent (R&D System; Cat: DY996).

On to `O=P(O)(O)COC[C@H]1O[C@H](c2csc3c(N4CC5CCCC5C4)nc(Cl)nc23)[C@H](O)[C@@H]1O` (stereo partly drawn) [Compound 304, [(2R,3S,4R,5R)-5-[4-(3,3a,4,5,6,6a-hexa-hydro-1H-cyclopenta-[c]pyrrol-2-yl)-2-chloro-thieno[3,2-d]-pyrimidin-7-yl]-3,4-dihydroxy-tetrahydro-furan-2-yl]methoxy-methylphosphonic acid], for which the IC50 in assay [1] and in assay [2] was above 1000 nM each time.

Turning to `CCNc1nc(C#N)nc2c1ccn2[C@@H]1O[C@H](COCP(=O)(O)O)[C@@H](O)[C@H]1O` [Compound 108, [(2R,3S,4R,5R)-5-[2-cyano-4-(ethylamino)-pyrrolo[2,3-d]-pyrimidin-7-yl]-3,4-dihydroxy-tetrahydro-furan-2-yl]methoxy-methylphosphonic acid], the IC50 in assay [1] and in assay [2] was 10 to 100 nM throughout.

For the compound `C[C@H](Nc1nc(C#N)nc2c1ccn2[C@@H]1O[C@H](COCP(=O)(O)O)[C@@H](O)[C@H]1O)c1ccc(F)cc1` [Compound 72, [(2R,3S,4R,5R)-5-[2-cyano-4-[[(1S)-1-(4-fluorophenyl)ethyl]-amino]pyrrolo[2,3-d]-pyrimidin-7-yl]-3,4-dihydroxy-tetrahydro-furan-2-yl]methoxy-methylphosphonic acid], the IC50 in assay [1] and in assay [2] was below 10 nM each time.

`O=P(O)(O)CS(=O)(=O)C[C@H]1O[C@@H](n2ccc3c(N4CC5CCCC5C4)nc(Cl)nc32)[C@H](O)[C@@H]1O` (stereo partly drawn) [Compound 156, [(2S,3S,4R,5R)-5-[4-(3,3a,4,5,6,6a-hexa-hydro-1H-cyclopenta-[c]pyrrol-2-yl)-2-chloro-pyrrolo[2,3-d]-pyrimidin-7-yl]-3,4-dihydroxy-tetrahydro-hydrofuran-2-yl]-methylsulfonylmethyl-phosphonic acid]: the IC50 in assay [1] and in assay [2] was below 10 nM throughout.

Regarding `O=P(O)(O)COC[C@H]1O[C@@H](c2ccc3c(NC4CCCC4)nc(Cl)nn23)[C@H](O)[C@@H]1O` [Compound 298, [(2R,3S,4R,5S)-5-[2-chloro-4-(cyclopentyl-amino)pyrrolo[2,1-f]-[1,2,4]triazin-7-yl]-3,4-dihydroxy-tetrahydro-furan-2-yl]methoxy-methylphosphonic acid], the IC50 in assay [1] and in assay [2] was below 10 nM in each case.

As to `C[C@@H](Nc1nc(C#N)nc2c1ccn2[C@@H]1O[C@H](COCP(=O)(O)O)[C@@H](O)[C@H]1O)c1ccccc1` [Compound 62, [(2R,3S,4R,5R)-5-[2-cyano-4-[[(1R)-1-phenylethyl]amino]pyrrolo[2,3-d]pyrimidin-7-yl]-3,4-dihydroxy-tetrahydrofuran-2-yl]methoxymethylphosphonic acid], the IC50 in assay [1] and in assay [2] was below 10 nM throughout.

With `CCN(c1nc(Cl)nc2c1ccn2[C@@H]1O[C@H](COCP(=O)(O)O)[C@@H](O)[C@H]1O)C1CCCC1` [Compound 195, [(2R,3S,4R,5R)-5-[2-chloro-4-[cyclopentyl-(ethyl)amino]pyrrolo-[2,3-d]pyrimidin-7-yl]-3,4-dihydroxy-tetra-hydrofuran-2-yl]-methoxymethylphos-phonic acid], the IC50 in assay [1] and in assay [2] was below 10 nM in each case.

For the compound `O=P(O)(O)COC[C@H]1O[C@@H](n2ncc3c(NC4CCC4)nc(Cl)nc32)[C@H](O)[C@@H]1O` [Compound 270, [(2R,3S,4R,5R)-5-[6-chloro-4-(cyclobutyl-amino)pyrazolo[3,4-d]-pyrimidin-1-yl]-3,4-dihydroxy-tetrahydro-furan-2-yl]methoxy-methylphosphonic acid], the IC50 in assay [1] and in assay [2] was below 10 nM in each case.

For `C[C@@H](Nc1nc(C#N)nc2c1ccn2[C@@H]1O[C@H](COCP(=O)(O)O)[C@@H](O)[C@H]1O)c1ccc(C2CC2)cc1` [Compound 205, [(2R,3S,4R,5R)-5-[2-cyano-4-[[(1R)-1-(4-cyclopropylphenyl)-ethyl]amino]pyrrolo-[2,3-d]pyrimidin-7-yl]-3,4-dihydroxy-tetra-hydrofuran-2-yl]-methoxymethylphos-phonic acid], the IC50 in assay [1] and in assay [2] was below 10 nM each time.

Consider `O=P(O)(O)COC[C@H]1O[C@@H](n2ccc3c(N4CCC4)nc(Cl)nc32)[C@H](O)[C@@H]1O` [Compound 112, [(2R,3S,4R,5R)-5-[4-(azetidin-1-yl)-2-chloro-pyrrolo[2,3-d]-pyrimidin-7-yl]-3,4-dihydroxy-tetrahydro-furan-2-yl]methoxy-methylphosphonic acid], for which the IC50 in assay [1] and in assay [2] was 10 to 100 nM each time.

Take `N#Cc1nc(N2CCOCC2)c2ccn([C@@H]3O[C@H](COCP(=O)(O)O)[C@@H](O)[C@H]3O)c2n1` [Compound 127, [(2R,3S,4R,5R)-5-(2-cyano-4-morpholino-pyrrolo[2,3-d]-pyrimidin-7-yl)-3,4-dihydroxy-tetrahydro-furan-2-yl]methoxy-methylphosphonic acid]: the IC50 in assay [1] and in assay [2] was 10 to 100 nM each time.

Regarding `O=P(O)(O)COC[C@H]1O[C@@H](c2c(Br)sc3c(N4CC5CCCC5C4)nc(Cl)nc23)[C@H](O)[C@@H]1O` (stereo partly drawn) [Compound 297, [(2R,3S,4R,5S)-5-[4-(3,3a,4,5,6,6a-hexa-hydro-1H-cyclopenta-[c]pyrrol-2-yl)-6-bromo-2-chloro-thieno[3,2-d]-pyrimidin-7-yl]-3,4-dihydroxy-tetrahydro-furan-2-yl]methoxy-methylphosphonic acid], the IC50 in assay [1] and in assay [2] was 100 to 1000 nM in each case.

`C[C@@H](Nc1nc(Cl)nc2c1ccn2[C@@H]1O[C@H](COCP(=O)(O)O)[C@@H](O)[C@H]1O)c1ccccc1` [Compound 61, [(2R,3S,4R,5R)-5-[2-chloro-4-[[(1R)-1-phenylethyl]amino]pyrrolo[2,3-d]pyrimidin-7-yl]-3,4-dihydroxy-tetrahydrofuran-2-yl]methoxymethylphosphonic acid]: the IC50 in assay [1] and in assay [2] was below 10 nM each time.

Regarding `O=P(O)(O)COC[C@H]1O[C@@H](n2cnc3c(NCc4ccccc4)ncnc32)[C@H](O)[C@@H]1O` [Compound 1, [(2R,3S,4R,5R)-5-[6-(benzylamino)purin-9-yl]-3,4-dihydroxy-tetrahydrofuran-2-yl]methoxymethyl-phosphonic acid], the IC50 in assay [1] and in assay [2] was above 1000 nM throughout.

As to `O=P(O)(O)CS(=O)(=O)C[C@H]1O[C@@H](n2ncc3c(NC4CCCC4)nc(Cl)nc32)[C@H](O)[C@@H]1O` [Compound 287, [(2S,3S,4R,5R)-5-[6-chloro-4-(cyclopentyl-amino)pyrazolo[3,4-d]-pyrimidin-1-yl]-3,4-dihydroxy-tetrahydro-furan-2-yl]methyl-sulfonylmethylphos-phonic acid], the concentration for half-maximal inhibition (IC50) in assay [1] and in assay [2] was below 10 nM throughout.

For the compound `C[C@@H](Nc1nc(C#N)nc2c1ccn2[C@@H]1O[C@H](COCP(=O)(O)O)[C@@H](O)[C@H]1O)c1cccc(F)c1` [Compound 81, [(2R,3S,4R,5R)-5-[2-cyano-4-[[(1R)-1-(3-fluorophenyl)ethyl]-amino]pyrrolo[2,3-d]-pyrimidin-7-yl]-3,4-dihydroxy-tetrahydro-furan-2-yl]methoxy-methylphosphonic acid], the half-inhibitory concentration (IC50) in assay [1] and in assay [2] was below 10 nM throughout.

As for `COCCOc1nc(NC2CCCC2)c2ccn([C@@H]3O[C@H](COCP(=O)(O)O)[C@@H](O)[C@H]3O)c2n1` [Compound 260, [(2R,3S,4R,5R)-5-[4-(cyclopentylamino)-2-(2-methoxyethoxy)-pyrrolo[2,3-d]-pyrimidin-7-yl]-3,4-dihydroxy-tetrahydro-furan-2-yl]methoxy-methylphosphonic acid], the IC50 in assay [1] and in assay [2] was 10 to 100 nM each time.

With `O=P(O)(O)COC[C@H]1O[C@@H](n2ccc3c(-c4ccccc4)nc(Cl)nc32)[C@H](O)[C@@H]1O` [Compound 212, [(2R,3S,4R,5R)-5-(2-chloro-4-phenyl-pyrrolo[2,3-d]-pyrimidin-7-yl)-3,4-dihydroxy-tetrahydro-furan-2-yl]methoxy-methylphosphonic acid], the 50% inhibitory concentration (IC50) in assay [1] and in assay [2] was 10 to 100 nM in each case.

As for `O=P(O)(O)COC[C@H]1O[C@H](c2c[nH]c3c(N4CC5CCCC5C4)nc(Cl)nc23)[C@H](O)[C@@H]1O` (stereo partly drawn) [Compound 294, [(2R,3S,4R,5R)-5-[4-(3,3a,4,5,6,6a-hexa-hydro-1H-cyclopenta-[c]pyrrol-2-yl)-2-chloro-5H-pyrrolo[3,2-d]pyrimidin-7-yl]-3,4-dihydroxy-tetrahydro-furan-2-yl]methoxy-methylphosphonic acid], the IC50 in assay [1] was 10 to 100 nM; in assay [2], below 10 nM.
